How the values were obtained:
Assay in all cases: relative viability (nuclei count vs DMSO), 5 days (fraction); higher = more cells survive
YM155 + Lapatinib = compound: COCC[n+]1c2c(n(Cc3cnccn3)c1C)C(=O)c1ccccc1C2=O [YM155] + CS(=O)(=O)CCNCc1ccc(-c2ccc3ncnc(Nc4ccc(OCc5cccc(F)c5)c(Cl)c4)c3c2)o1 [Lapatinib] (partner 2 µM)
How it was run: (§1)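 A single step with final 0.05% Triton X-100, 1% formaldehyde and 1 ug/ml Hoechst fixed the cells and stained nuclei 5 days after treatment. Lung cancer cell lines in 1536-well plates had been treated by pin tool the day after seeding with one drug alone or a fixed anchor-drug dose plus five library-drug doses (not always all listed) in √10 steps, and nuclei were counted on 4× images. Relative viability is the ratio of nuclei in treated wells to nuclei in vehicle wells, taken as the median of duplicate plates.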

YM155 + Vorinostat = compound: COCC[n+]1c2c(n(Cc3cnccn3)c1C)C(=O)c1ccccc1C2=O [YM155] + O=C(CCCCCCC(=O)Nc1ccccc1)NO [Vorinostat] (partner 1 µM)
How it was run: as §1

Quizartinib + Vorinostat = compound: CC(C)(C)c1cc(NC(=O)Nc2ccc(-c3cn4c(n3)sc3cc(OCCN5CCOCC5)ccc34)cc2)no1 [Quizartinib] + O=C(CCCCCCC(=O)Nc1ccccc1)NO [Vorinostat] (partner 1 µM)
How it was run: as §1

Quizartinib + Phenformin = compound: CC(C)(C)c1cc(NC(=O)Nc2ccc(-c3cn4c(n3)sc3cc(OCCN5CCOCC5)ccc34)cc2)no1 [Quizartinib] + N=C(N)NC(=N)NCCc1ccccc1 [Phenformin] (partner 250 µM)
How it was run: as §1

| Cell Line | relative viability (YM155 + Lapatinib; first compound 0.002 µM) | relative viability (YM155 + Lapatinib; first compound 0.02 µM) | relative viability (YM155 + Lapatinib; first compound 0.06325 µM) | relative viability (YM155 + Vorinostat; first compound 0.002 µM) | relative viability (YM155 + Vorinostat; first compound 0.006325 µM) | relative viability (YM155 + Vorinostat; first compound 0.02 µM) | relative viability (YM155 + Vorinostat; first compound 0.06325 µM) | relative viability (Quizartinib + Vorinostat; first compound 0.001 µM) | relative viability (Quizartinib + Vorinostat; first compound 0.003162 µM) | relative viability (Quizartinib + Vorinostat; first compound 0.01 µM) | relative viability (Quizartinib + Vorinostat; first compound 0.03162 µM) | relative viability (Quizartinib + Vorinostat; first compound 0.1 µM) | relative viability (Quizartinib + Phenformin; first compound 0.001 µM) | relative viability (Quizartinib + Phenformin; first compound 0.003162 µM) | relative viability (Quizartinib + Phenformin; first compound 0.01 µM) | relative viability (Quizartinib + Phenformin; first compound 0.03162 µM) | relative viability (Quizartinib + Phenformin; first compound 0.1 µM) | relative viability (YM155 + Lapatinib; first compound 0.006325 µM) |
| --- | --- | --- | --- | --- | --- | --- | --- | --- | --- | --- | --- | --- | --- | --- | --- | --- | --- | --- |
| NCI-H1666 | 0.629 | 0.77 | 0.562 | 0.923 | 1.11 | 1.03 | 1.03 | 1.06 | 0.974 | 1.16 | 0.893 | 1.07 | 0.581 | 0.433 | 0.569 | 0.568 | 0.54 | – |
| NCI-H1734 | 1.09 | 1.13 | 0.969 | 0.826 | 0.799 | 0.891 | 0.84 | 0.748 | 0.802 | 0.796 | 0.746 | 0.854 | 0.3 | 0.338 | 0.48 | 0.391 | 0.387 | 1.08 |
| NCI-H1755 | 1.04 | 1.01 | 1.04 | 0.752 | 0.671 | 0.622 | 0.845 | 0.723 | 0.69 | 0.796 | 0.946 | 0.717 | 0.58 | 0.665 | 0.609 | 0.652 | 0.672 | 1.03 |
| NCI-H1793 | – | 0.606 | 0.479 | 0.719 | 0.641 | 0.89 | 0.74 | 0.642 | 0.888 | 0.762 | 0.809 | 0.881 | 0.361 | 0.338 | 0.385 | 0.317 | 0.37 | 0.584 |
| NCI-H1915 | 0.968 | 0.918 | 0.784 | 0.516 | 0.519 | 0.525 | 0.533 | 0.55 | 0.442 | 0.49 | 0.551 | 0.562 | 0.345 | 0.374 | 0.408 | 0.353 | 0.38 | 0.946 |
| NCI-H1944 | 0.842 | 0.767 | 0.82 | 0.596 | 0.511 | 0.599 | 0.629 | 0.448 | 0.579 | 0.465 | 0.532 | 0.588 | 0.206 | 0.209 | 0.182 | 0.192 | 0.173 | 0.724 |
| NCI-H1975 | 0.701 | 0.856 | 0.175 | 0.661 | 0.667 | 0.641 | 0.442 | 0.669 | 0.695 | 0.745 | 0.705 | 0.721 | 0.395 | 0.406 | 0.476 | 0.399 | 0.404 | 0.774 |
| NCI-H1993 | 0.81 | 0.682 | 0.757 | 0.739 | 0.714 | 0.667 | 0.523 | 0.68 | 0.76 | 0.939 | 0.726 | 0.725 | 0.478 | 0.48 | 0.523 | 0.441 | 0.625 | 0.736 |
| NCI-H2009 | 0.888 | 0.946 | 0.119 | 0.685 | 0.693 | 0.726 | 0.621 | 0.673 | 0.697 | 0.652 | 0.696 | 0.761 | 0.464 | 0.48 | 0.504 | 0.44 | 0.174 | 0.893 |
| NCI-H2023 | 0.884 | 0.867 | 0.49 | 0.738 | 0.817 | 0.792 | 0.171 | 0.61 | 0.493 | 0.762 | – | 0.772 | 0.347 | 0.378 | 0.372 | – | 0.312 | 0.827 |
| NCI-H2085 | 0.746 | 0.614 | 0.315 | 0.677 | 0.795 | 0.757 | 0.625 | 0.694 | 0.784 | 0.791 | 0.796 | 0.733 | 0.631 | 0.648 | 0.753 | 0.673 | 0.574 | 0.752 |
| NCI-H2087 | 1.26 | 1.12 | 0.708 | 0.667 | 0.759 | 0.55 | 0.44 | 0.751 | 0.705 | 0.676 | 0.384 | 0.73 | – | 0.429 | 0.458 | 0.369 | 0.516 | 1.01 |
| NCI-H2126 | 0.768 | 0.726 | 0.783 | 0.782 | 0.834 | 0.865 | 0.851 | 0.621 | 0.789 | 0.711 | 0.816 | 0.841 | 0.518 | 0.58 | 0.534 | – | 0.576 | 0.788 |
| NCI-H2170 | 0.261 | 0.291 | 0.235 | 0.725 | 0.752 | 0.863 | 0.842 | 0.745 | 0.803 | 0.808 | 0.89 | 0.867 | 0.415 | 0.432 | 0.403 | 0.436 | 0.378 | 0.261 |
| NCI-H2228 | 0.856 | 0.988 | 0.998 | 0.451 | 0.82 | 0.585 | 0.51 | 0.51 | 0.565 | 0.844 | 0.535 | 0.629 | 0.242 | 0.228 | 0.52 | 0.345 | 0.26 | 1.16 |
| NCI-H2347 | 0.917 | 0.997 | 0.598 | 0.506 | 0.488 | 0.521 | 0.476 | 0.544 | 0.647 | 0.715 | 0.522 | 0.603 | 0.268 | 0.359 | 0.461 | 0.395 | 0.497 | 0.914 |
| NCI-H2405 | 1.03 | 0.786 | 0.34 | 0.973 | 0.964 | 0.917 | 0.533 | 0.943 | 0.967 | 0.763 | 0.902 | 1.17 | 0.42 | 0.414 | 0.402 | 0.407 | 0.383 | 0.816 |
| NCI-H3122 | 1 | 1.01 | 1.08 | 0.828 | 0.746 | 1.05 | 0.976 | 0.89 | 0.799 | 0.915 | 1 | 0.994 | – | 0.377 | 0.381 | – | 0.359 | 0.997 |
